Here are results for seven molecules from patent publication US9005627B2, “Contiguous overlapping peptides for treatment of ragweed pollen allergy” (Anergis S.A., priority 2011, dated 2015).

The subject of series [1] is Amb a 1 specific IgE in serum of subjects allergic to ragweed pollen. The experiment in a line: Competition ELISA for IgE binding on nAmb a 1 coated plates. Further details: species or system human. The procedure: Recombinant Amb a 1 at 0.5 μg/ml (purified nAmb a 1 obtained from Protein Labs, San Diego) was coated overnight on 96-well Nunc Maxisorp® immunoplates (Life Technologies, Basel, Switzerland). After blocking with 1% BSA, either ten-fold, twenty-fold, thirty-fold or forty-fold dilutions of patient serum were added depending on specific IgE content. […] The sera of three allergic patients were selected for high IgE level and clear signal over background and used to test for competition with the peptides. Serial dilutions of each set of COPs, namely Set A; Set B and Set C, at indicted concentrations were pre-incubated with the three selected sera overnight at 4° C. Sera were then incubated on nAmb a 1 coated 96-well plates and residual IgE binding was determined as described above. nAmb a 1 dilutions were used as control for inhibition, whereas BSA was used as control for possible non-specific inhibition.
For orientation: In an ELISA, binding on a coated surface is turned into a signal by an enzyme label.

Series [2] relates to human basophils loaded with serum from a patient allergic to ragweed pollen. Description: Human basophil degranulation test (Basotest). Type of series: cell-based. The procedure: BasotestR (ORPEGEN Pharma Heidelberg, Germany) was used for the quantitative determination of in vitro basophile degranulation. Heparinized blood (100 μl) from a non-allergic donor (ACT) was first incubated with serum (25 μl) from a patient allergic to ragweed pollen (FB) for 2 hours. The mix was further stimulated with buffer (reagent B) for 10 min at 37° C., and then with or without chemotactic peptide formylmethionylleucylphenylalanine (fMLP) as positive and negative controls respectively. Aliquots of blood were incubated in parallel with 100 μl allergen solution diluted in a saline solution for 20 min at 37° C. A dose response curve was performed with 250-12.5-0.625-0.031 nano-molar nAmb a 1 (added concentration) as well as starting 10 fold higher with AllerR mixed Sets (AllerR1-R6 and AllerR7-11). The activation process was stopped by incubating the blood samples at 4° C. for 5 min. The samples were then incubated for 20 min at +4° C.) (dark condition with 20 μl of phycoerythrin (PE)-conjugated anti-IgE and fluorescein isothyocyanate (FITC)-conjugated anti-gp53 (CD63). […] Cells were washed twice with PBS solution and resuspended in 200 μl of PBS solution and analyzed within 2 h by flow cytometry (FASC-LSRII-Becton Dickinson). The basophile population was gated on the PE anti-IgE positive cells and the expression of gp53 (CD63) was analyzed on this population. […]

Series [3] in a line: Solubility characteristics of COPs.
Protocol: (§1) Peptides were resuspended either in water at 2 mg/ml or at 10 to 20 mg per ml in DMSO as indicated and frozen in aliquots.
The conditions of series [4]: pH 7.
Protocol: as §1
Series [5] deals with Rat Basophilic Leukemia cells (RBL-30/25) expressing human IgE receptor, pre-loaded with sera from allergic patients. The experiment in a line: RBL cell degranulation (beta-hexosaminidase release). The settings on record: sera from panel of allergic patients (21 sera); FIG. 3. Type of series: cell-based. The procedure:
Alternatively, degranulation was monitored using Rat Basophilic Leukemia cells (RBL) expressing parts of the human IgE receptor pre-loaded with sera from allergic patients (Vogel et al, Allergy 60: 1021-1028 (2005)). Essentially, RBL-30/25 cells were pre-incubated overnight with sera from patients from the region around Lyon (France, Biomnis) as well as from US (Plasma Lab International). To increase and stabilize the secretion of beta-hexosaminidase, 50% D2O was added to the Tyrode's buffer used for the assay. beta-hexosaminidase release after IgE crosslinking with an anti-IgE antibody was set to 100% release reflecting the ability of the cells to release beta-hexosaminidase upon IgE crosslinking. Amb a 1-specific release is given as percent of IgE mediated release.

Series [6] concerns Balb/c mice sensitized with nAmb a 1. The experiment in a line: Anaphylactic response in sensitized mice (sensitization and challenge). Type of series: in vivo. The procedure:
Balb/c mice were sensitized by repeated injections of low doses (1 ug) of the allergen Amb a 1 by 5 subcutaneous injections at 14 days interval. […] Anaphylactic symptoms were scored using a scale of 6 grades (0, no symptoms to 5, death) adapted from Sade et al. J Investig Allergol Clin Immunol; 17(6): 379-385 (2007). Rectal temperature was monitored at 15 minutes intervals for 60 minutes after challenge using a digital thermometer. Citrate buffer was used as control for sensitization and challenge leading to two additional mice groups.

“Also recorded” adds a separate entry of the source. No end group written: not given here.

“AGSDGDAISISGSSQIWIDHCSLSKSVDGLVDAKLGTTRLTVSNSLFTQHQFVLLFGAGDENIEDRGMLATVAFNTFTDN [AllerR4]”: the “IgE binding (in words)” value in series [1] (as seen in competition ELISA) and in series [2] (as seen in degranulation assays) was “did not bind IgE” throughout.

For the molecule “DVANPKEGTLRFGAAQNRPLWIIFERDMVIRLDKEMVVNSDKTIDGRGAKVE [AllerR2]”, in series [3] (water), the solubility is 2000 µg/mL.

“FVLLFGAGDENIEDRGMLATVAFNTFTDNVDQRMPRCRHGFFQVVNNNYDKWGSYAIGGSASPTILSQGNRFCAPDERS [AllerR10]”: the “Conc. (solubility)” value in series [4] is 2000 µg/mL.

“TIDGRGAKVEIINAGFTLNGVKNVIIHNINMHDVKVNPGGLIK [AllerR3]”: the concentration in solution in series [3] (water) (solubility) was 2000 µg/mL.

Regarding “TSGAYNIIDGCWRGKADWAENRKALADCAQGFGKGTVGGKDGDIYTVTSELDDDVANPK (cysteines drawn unpaired) [AllerR1]”, the concentration in solution in series [3] (water) (solubility) came to 2000 µg/mL.

In the case of “VDAKLGTTRLTVSNSLFTQHQFVLLFGAGDENIEDRGMLATVAFNTFTDN [AllerR4.2]”, the solubility in series [3] (5 mM HCl, 0.1 M NaOH and 0.1 M citrate buffer pH 5.6, pH 5.6) came to 1000 µg/mL. The “Solubility (in words)” value in series [3] (solvent as stated in the value) was “not soluble in H2O”.

B1: nAmb a 1: ragweed pollen major allergen purified from ragweed pollen by Protein Labs; positive control (protein)
chain: AEDLQEILPVNETRRLTTSGAYNIIDGCWRGKADWAENRKALADCAQGFGKGTVGGKDGDIYTVTSELDDDVANPKEGTLRFGAAQNRPLWIIFERDMVIRLDKEMVVNSDKTIDGRGAKVEIINAGFTLNGVKNVIIHNINMHDVKVNPGGLIKSNDGPAAPRAGSDGDAISISGSSQIWIDHCSLSKSVDGLVDAKLGTTRLTVSNSLFTQHQFVLLFGAGDENIEDRGMLATVAFNTFTDNVDQRMPRCRHGFFQVVNNNYDKWGSYAIGGSASPTILSQGNRFCAPDERSKKNVLGRHGEAAAESMKWNWRTNKDVLENGAIFVASGVDPVLTPEQSAGMIPAEPGESALSLTSSAGVLSCQPGAPC
Regarding B1, the “Concentration range showing competition” value in series [1] (panel of sera from 22 patients allergic to ragweed, data not shown) is recorded as 10^−11 to 10^−8 molar. Further, the “Concentrations at which competition with serum IgE occurs” value in series [1] (sera from three allergic patients (17794, 18342, FB), FIG. 1) is on record as 10^−11 to 10^−8 M. Also, the “Basophil degranulation (CD63 expression), in words” value in series [2] (human basophils loaded with serum FB, FIG. 2) was “induce human basophil degranulation”. Further, the “Degranulation of RBL cells, in words” value in series [5] is reported as “triggered degranulation to various extents; also recorded: triggered degranulation to various extend”. Besides, the “Anaphylactic symptom scores (scale 0 to 5)” value in series [6] (challenge 7 days after last sensitizing injection, Amb a 1 30 μg/ml or AllerR 34 μg/ml, observed one hour, FIG. 5 panel A) is listed as “significant increase in symptom scores already after 15 min”. In addition, the “Rectal (body) temperature after challenge” value in series [6] (measured every 15 min, FIG. 5 panel B) was “marked decrease in rectal temperature”. Further, the “IgE mean levels, increase over pre-immune following sensitization” value in series [6] (mice sensitized by repeated s.c. injections of nAmb a 1, FIG. 5 panel C) is given as “about 500 fold”.

What is called solubility is the dissolved amount per volume that the medium holds.
